Reference: patent US20080275002A1, “Method for Treatment of Hepatic Cancer” (TAIHO PHARMACEUTICAL CO., LTD., priority 2005, published 2008)

Tests used:
lung cancer = details: high dose, 60 to 80 mg/day, patients with lung cancer; cited from earlier work
hepatic cancer = details: animal model of hepatic cancer; cited from earlier work
[1] = tested on: advanced hepatocellular carcinoma; assay: Clinical study (Phase I/II) of oral TAC-101 in patients with advanced hepatocellular carcinoma; format: in vivo
Text: Administrations were continued for patients without dose-limiting toxicities (DLT) and without aggravation of the cancer. […] Patients administered with the recommended dose in Phase I part were subjected to data analysis under assumption as Phase II part patients.
Specifically, after determination of the measurable lesions in each patient, the response was classified as complete response (CR), partial response (PR), minor response (MR), stabilization of the disease (SD), or progression of the disease (PD) for the efficacy evaluation.

[2] = molecular target: T1, retinoic acid receptor α (RAR-α) (Homo sapiens, UniProt P10276); details: activates transcription through the receptor; cited from earlier work
T1 sequence (P10276 1-462): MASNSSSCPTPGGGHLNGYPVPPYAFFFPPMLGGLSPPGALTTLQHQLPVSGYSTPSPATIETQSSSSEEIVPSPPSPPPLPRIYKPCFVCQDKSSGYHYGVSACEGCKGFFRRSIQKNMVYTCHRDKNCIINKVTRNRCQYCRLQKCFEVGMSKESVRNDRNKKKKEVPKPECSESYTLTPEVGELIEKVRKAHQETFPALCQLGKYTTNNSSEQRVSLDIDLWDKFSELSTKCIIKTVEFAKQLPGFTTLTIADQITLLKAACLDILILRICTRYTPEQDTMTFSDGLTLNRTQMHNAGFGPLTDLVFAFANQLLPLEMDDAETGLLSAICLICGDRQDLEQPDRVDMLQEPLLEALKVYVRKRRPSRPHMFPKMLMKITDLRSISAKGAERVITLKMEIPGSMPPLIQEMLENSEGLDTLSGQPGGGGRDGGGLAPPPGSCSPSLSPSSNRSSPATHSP

[3] = 20 mg/day, side effects approximately grade 2

SMILES: C[Si](C)(C)c1cc(C(=O)Nc2ccc(C(=O)O)cc2)cc([Si](C)(C)C)c1 [TAC-101, 4-[3,5-Bis(trimethylsilyl)benzamido]benzoic acid]
- deep vein thrombosis (DVT), dose-limiting toxicity (lung cancer): frequently induces deep vein thrombosis
- tumor response (lung cancer): tumor reducing effects (PR and CR)
- antitumor effects (hepatic cancer): demonstrated
- therapy terminated because of grade 3 increase of aspartate aminotransferase (AST) ([1]; 20 mg/day): one
- therapy terminated because of onset of grade 3 venous thrombosis embolism (VTE) ([1]; 20 mg/day): one
- therapy terminated because of onset of grade 4 pulmonary embolism (PE) ([1]; 20 mg/day): one
- patients developing dose-limiting toxicity (DLT) ([1]; 20 mg/day oral, among 7 patients, pancreatitis and fatigue): one
- share of patients with TTF 12 weeks or longer ([1]; 20 mg/day, 9/21): 42%
- PR or CR case (WHO criteria) ([1]; 20 mg/day, 21 evaluable patients): not observed
- time to treatment failure (TTF) ([1]; 20 mg/day, all 21 patients): 6.6 weeks
- patients to whom four or more courses were applicable, progress of the hepatic cancer significantly arrested ([1]; 20 mg/day, of 21 evaluable patients): 9 patients
- patients with TTF 12 weeks or longer (progress arrested, no deterioration) ([1]; 20 mg/day, of 21 patients): 9 patients
- AST increase, incidence [1, 3]: 14.3%
- AST increase, number of patients [1, 3]: 4 patients
- alanine aminotransferase (ALT), incidence [1, 3]: 14.3%
- alanine aminotransferase (ALT), number of patients [1, 3]: 4 patients
- anorexia, incidence [1, 3]: 10.7%
- anorexia, number of patients [1, 3]: 3 patients
- dermatitis, incidence [1, 3]: 21.4%
- dermatitis, number of patients [1, 3]: 6 patients
- fatigue, incidence [1, 3]: 32%
- fatigue, number of patients [1, 3]: 9 patients
- increased triglycerides, incidence [1, 3]: 28.6%
- increased triglycerides, number of patients [1, 3]: 8 patients
- myalgias, incidence [1, 3]: 28.6%
- myalgias, number of patients [1, 3]: 8 patients
- nausea, incidence [1, 3]: 14.3%
- nausea, number of patients [1, 3]: 4 patients
- maximum tolerance dose (MTD) ([1]; 14 days daily oral administration, 7 days withdrawal): 20 mg/day
- binding to RAR-α [2]: binding selectively
